Measurements from patent publication US9981942B2, “Piperidine derivatives having multimodal activity against pain” (LABORATORIOS DEL DR. ESTEVE S.A., priority 2013, dated 2018).

Target: σ1 receptor and the μ-opiod receptor
Assay: μ and σ1 dual binding: combined class from the Ki of both radioligand assays
Design: species or system human; key to μ and σ1 dual binding: +: Both Ki-μ and Ki-σ1>=500 nM; ++: One Ki<500 nM while the other Ki is >=500 nM; +++: Both Ki-μ and Ki-σ1<500 nM; ++++: Both Ki-μ and Ki-σ1<100 nM
Conditions: transfected HEK-293 membranes (σ1), transfected CHO-K1 cell membranes (μ); for μ and σ1 dual binding: combined class for Ki-μ and Ki-σ1
In short: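 Classes combine both Ki values, split at 500 nM and 100 nM. Human μ-opioid binding used 1 nM [3H]-DAMGO on CHO-K1 membranes (27 °C, 60 min, pH 7.4, naloxone 10 μM for NSB); human σ1 used 5 nM [3H](+)-pentazocine on HEK-293 membranes (37 °C, 120 min, pH 8, haloperidol 10 μM for NSB).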

Oc1cccc(C2CCN(Cc3cn(Cc4ccccn4)nn3)CC2)c1 [Example 55, 3-(1-((1-(pyridin-2-ylmethyl)-1H-1,2,3-triazol-4-yl)methyl)piperidin-4-yl)phenol]
Ki range for both μ and σ1 (dual-binding class): < 500 nM

CCNC(=O)Nc1cccc(C2CCN(Cc3cn(-c4ccccc4)nn3)CC2)c1 [Example 56, 1-ethyl-3-(3-(1-((1-phenyl-1H-1,2,3-triazol-4-yl)methyl)piperidin-4-yl)phenyl)urea]
Ki range for both μ and σ1 (dual-binding class): < 500 nM

CS(=O)(=O)Nc1cccc(C2CCN(Cc3cn(Cc4ccc(C(F)(F)F)cc4)nn3)CC2)c1 [Example 57, N-(3-(1-((1-(4-(trifluoromethyl)benzyl)-1H-1,2,3-triazol-4-yl)methyl)piperidin-4-yl)phenyl)methanesulfonamide]
Ki range for both μ and σ1 (dual-binding class): < 500 nM

Oc1cccc(C2CCN(Cc3cn(-c4ccccc4O)nn3)CC2)c1 [Example 58, 2-(4-((4-(3-hydroxyphenyl)piperidin-1-yl)methyl)-1H-1,2,3-triazol-1-yl)phenol]
Ki range for both μ and σ1 (dual-binding class): < 500 nM

Oc1cccc(C2CCN(Cc3cn(-c4ccc(C(F)(F)F)nc4)nn3)CC2)c1 [Example 60, 3-(1-((1-(6-(trifluoromethyl)pyridin-3-yl)-1H-1,2,3-triazol-4-yl)methyl)piperidin-4-yl)phenol]
Ki range for both μ and σ1 (dual-binding class): < 100 nM

CO[C@@H]1Cc2ccccc2[C@H]1n1cc(CN2CCC(c3cccc(O)c3)CC2)nn1 [Example 61, 3-(1-((1-((1R,2R)-2-methoxy-2,3-dihydro-1H-inden-1-yl)-1H-1,2,3-triazol-4-yl)methyl)piperidin-4-yl)phenol]
Ki range for both μ and σ1 (dual-binding class): < 100 nM

CS(=O)(=O)Nc1cccc(C2CCN(Cc3cn(-c4ccccc4)nn3)CC2)c1 [Example 62, N-(3-(1-((1-phenyl-1H-1,2,3-triazol-4-yl)methyl)piperidin-4-yl)phenyl)methanesulfonamide]
Ki range for both μ and σ1 (dual-binding class): < 100 nM

Oc1cccc(C2CCN(Cc3cn(Cc4cccc(F)c4)nn3)CC2)c1 [Example 63, 3-(1-((1-(3-fluorobenzyl)-1H-1,2,3-triazol-4-yl)methyl)piperidin-4-yl)phenol]
Ki range for both μ and σ1 (dual-binding class): < 100 nM

Oc1cccc(C2CCN(Cc3cn(C4CCC(F)(F)CC4)nn3)CC2)c1 [Example 64, 3-(1-((1-(4,4-difluorocyclohexyl)-1H-1,2,3-triazol-4-yl)methyl)piperidin-4-yl)phenol]
Ki range for both μ and σ1 (dual-binding class): < 100 nM

Oc1cccc(C2CCN(Cc3cn([C@H]4c5ccccc5C[C@@H]4O)nn3)CC2)c1 [Example 65, (1S,2S)-1-(4-((4-(3-hydroxyphenyl)piperidin-1-yl)methyl)-1H-1,2,3-triazol-1-yl)-2,3-dihydro-1H-inden-2-ol]
Ki range for both μ and σ1 (dual-binding class): < 500 nM

Oc1cccc(C2CCN(Cc3cn([C@@H]4CCCC[C@H]4O)nn3)CC2)c1 [Example 66, 3-(1-((1-((1R,2R)-2-hydroxycyclohexyl)-1H-1,2,3-triazol-4-yl)methyl)piperidin-4-yl)phenol]
Ki range for both μ and σ1 (dual-binding class): < 500 nM

OCC(c1ccccc1)n1cc(CN2CCC(c3cccc(O)c3)CC2)nn1 (stereo not shown) [Example 67, 3-(1-((1-(2-hydroxy-1-phenylethyl)-1H-1,2,3-triazol-4-yl)methyl)piperidin-4-yl)phenol]
Ki range for both μ and σ1 (dual-binding class): < 500 nM

CS(=O)(=O)Nc1cccc(C2CCN(Cc3cn(C4CCC(F)(F)CC4)nn3)CC2)c1 [Example 68, N-(3-(1-((1-(4,4-difluorocyclohexyl)-1H-1,2,3-triazol-4-yl)methyl)piperidin-4-yl)phenyl)methanesulfonamide]
μ and σ1 dual binding: ++

CCC(=O)Nc1cccc(C2CCN(Cc3cn([C@@H]4c5ccccc5C[C@H]4O)nn3)CC2)c1 [Example 69, N-(3-(1-((1-((1R,2R)-2-hydroxy-2,3-dihydro-1H-inden-1-yl)-1H-1,2,3-triazol-4-yl)methyl)piperidin-4-yl)phenyl)propionamide]
μ and σ1 dual binding: ++

Oc1cccc(C2CCN(Cc3cn([C@@H]4Cc5ccccc5[C@@H]4F)nn3)CC2)c1 [Example 71, 3-(1-((1-((1S,2R)-1-fluoro-2,3-dihydro-1H-inden-2-yl)-1H-1,2,3-triazol-4-yl)methyl)piperidin-4-yl)phenol]
Ki range for both μ and σ1 (dual-binding class): < 100 nM

Oc1cccc(C2CCN(Cc3cn([C@@H]4Cc5ccccc5[C@H]4F)nn3)CC2)c1 [Example 72, 3-(1-((1-((1R,2R)-1-fluoro-2,3-dihydro-1H-inden-2-yl)-1H-1,2,3-triazol-4-yl)methyl)piperidin-4-yl)phenol]
Ki range for both μ and σ1 (dual-binding class): < 100 nM

CC(=O)Nc1nc2ccc(C3CCN(Cc4cn(-c5ccccc5)nn4)CC3)cc2s1 [Example 74, N-(6-(1-((1-phenyl-1H-1-1,2,3-triazol-4-yl)methyl)piperidin-4-yl)benzo[d]thiazol-2-yl)acetamide]
μ and σ1 dual binding: ++

CC(c1ccccn1)n1cc(CN2CCC(c3cccc(O)c3)CC2)nn1 (stereo not shown) [Example 75, 3-(1-((1-(1-(pyridin-2-yl)ethyl)-1H-1,2,3-triazol-4-yl)methyl)piperidin-4-yl)phenol]
Ki range for both μ and σ1 (dual-binding class): < 500 nM

CC(c1ccccc1)n1cc(CN2CCC(c3cccc(NS(C)(=O)=O)c3)CC2)nn1 (stereo not shown) [Example 76, N-(3-(1-((1-(1-phenylethyl)-1H-1,2,3-triazol-4-yl)methyl)piperidin-4-yl)phenyl)methanesulfonamide]
Ki range for both μ and σ1 (dual-binding class): < 500 nM

Oc1cccc(C2CCN(Cc3cn([C@@H]4c5ccccc5C[C@H]4O)nn3)CC2)c1 [Example 78, (1R,2R)-1-(4-((4-(3-hydroxyphenyl)piperidin-1-yl)methyl)-1H-1,2,3-triazol-1-yl)-2,3-dihydro-1H-inden-2-ol]
Ki range for both μ and σ1 (dual-binding class): < 500 nM

CC(C)S(=O)(=O)Nc1cccc(C2CCN(Cc3cn(Cc4ccccc4)nn3)CC2)c1 [Example 79, N-(3-(1-((1-benzyl-1H-1,2,3-triazol-4-yl)methyl)piperidin-4-yl)phenyl)propane-2-sulfonamide]
Ki range for both μ and σ1 (dual-binding class): < 500 nM

CC(C)S(=O)(=O)Nc1cccc(C2CCN(Cc3cn(Cc4ccccn4)nn3)CC2)c1 [Example 81, N-(3-(1-((1-(pyridin-2-ylmethyl)-1H-1,2,3-triazol-4-yl)methyl)piperidin-4-yl)phenyl)propane-2-sulfonamide]
μ and σ1 dual binding: ++

Oc1cccc(C2CCN(Cc3cn([C@H]4CC[C@@H](C(F)(F)F)CC4)nn3)CC2)c1 [Example 82, 3-(1-((1-((1s,4s)-4-(trifluoromethyl)cyclohexyl)-1H-1,2,3-triazol-4-yl)methyl)piperidin-4-yl)phenol]
Ki range for both μ and σ1 (dual-binding class): < 100 nM

Oc1cccc(C2CCN(Cc3cn([C@H]4CC[C@H](C(F)(F)F)CC4)nn3)CC2)c1 [Example 83, 3-(1-((1-((1r,4r)-4-(trifluoromethyl)cyclohexyl)-1H-1,2,3-triazol-4-yl)methyl)piperidin-4-yl)phenol]
Ki range for both μ and σ1 (dual-binding class): < 100 nM

Oc1cccc(C2CCN(Cc3cn(-c4ccccn4)nn3)CC2)c1 [Example 84, 3-(1-((1-(pyridin-2-yl)-1H-1,2,3-triazol-4-yl)methyl)piperidin-4-yl)phenol]
Ki range for both μ and σ1 (dual-binding class): < 100 nM

c1ccc(-n2cc(CN3CCC(c4cccc(-c5nnn[nH]5)c4)CC3)nn2)cc1 [Example 85, 4-(3-(1H-tetrazol-5-yl)phenyl)-1-((1-phenyl-1H-1,2,3-triazol-4-yl)methyl)piperidine]
Ki range for both μ and σ1 (dual-binding class): ≥ 500 nM

CC(c1ccccn1)n1cc(CN2CCC(c3cccc(NS(C)(=O)=O)c3)CC2)nn1 (stereo not shown) [Example 86, N-(3-(1-((1-(1-(pyridin-2-yl)ethyl)-1H-1,2,3-triazol-4-yl)methyl)piperidin-4-yl)phenyl)methanesulfonamide]
μ and σ1 dual binding: ++

CS(=O)(=O)Nc1ccc(F)c(C2CCN(Cc3cn(Cc4ccccc4)nn3)CC2)c1 [Example 87, N-(3-(1-((1-benzyl-1H-1,2,3-triazol-4-yl)methyl)piperidin-4-yl)-4-fluorophenyl)methanesulfonamide]
Ki range for both μ and σ1 (dual-binding class): < 500 nM

Oc1cccc(C2CCN(Cc3cn([C@@H]4c5ccccc5C[C@@H]4O)nn3)CC2)c1 [Example 88, (1R,2S)-1-(4-((4-(3-hydroxyphenyl)piperidin-1-yl)methyl)-1H-1,2,3-triazol-1-yl)-2,3-dihydro-1H-inden-2-ol]
Ki range for both μ and σ1 (dual-binding class): < 500 nM

Oc1cccc(C2CCN(Cc3cn(-c4coc5ccccc45)nn3)CC2)c1 [Example 89, 3-(1-((1-(benzofuran-3-yl)-1H-1,2,3-triazol-4-yl)methyl)piperidin-4-yl)phenol]
Ki range for both μ and σ1 (dual-binding class): < 100 nM

CS(=O)(=O)Nc1cc(C2CCN(Cc3cn(Cc4ccccc4)nn3)CC2)ccc1F [Example 90, N-(5-(1-((1-benzyl-1H-1,2,3-triazol-4-yl)methyl)piperidin-4-yl)-2-fluorophenyl)methanesulfonamide]
μ and σ1 dual binding: ++

CS(=O)(=O)Nc1cccc(C2CCN(Cc3cn([C@H]4c5ccccc5C[C@@H]4O)nn3)CC2)c1 [Example 91, N-(3-(1-((1-((1S,2S)-2-hydroxy-2,3-dihydro-1H-inden-1-yl)-1H-1,2,3-triazol-4-yl)methyl)piperidin-4-yl)phenyl)methanesulfonamide]
μ and σ1 dual binding: ++

CS(=O)(=O)Nc1cccc(C2CCN(Cc3cn([C@@H]4c5ccccc5C[C@H]4O)nn3)CC2)c1 [Example 92, N-(3-(1-((1-((1R,2R)-2-hydroxy-2,3-dihydro-1H-inden-1-yl)-1H-1,2,3-triazol-4-yl)methyl)piperidin-4-yl)phenyl)methanesulfonamide]
Ki range for both μ and σ1 (dual-binding class): < 500 nM

Nc1cccc(C2CCN(Cc3cn(-c4ccccc4)nn3)CC2)c1 [Example 94, 3-(1-((1-phenyl-1H-1,2,3-triazol-4-yl)methyl)piperidin-4-yl)aniline]
Ki range for both μ and σ1 (dual-binding class): < 100 nM
